Experimental data: ChEMBL document CHEMBL1152560, “Substituted 2-arylbenzothiazoles as kinase inhibitors: hit-to-lead optimization” (Bioorg Med Chem, 2009)

Assays:
[1] = target: T1, Ephrin type-B receptor 1 (Homo sapiens) (UniProt P54762); assay: Residual activity of EPHB1 at 1 uM by microplate scintillation counting
T1 sequence (whole entry): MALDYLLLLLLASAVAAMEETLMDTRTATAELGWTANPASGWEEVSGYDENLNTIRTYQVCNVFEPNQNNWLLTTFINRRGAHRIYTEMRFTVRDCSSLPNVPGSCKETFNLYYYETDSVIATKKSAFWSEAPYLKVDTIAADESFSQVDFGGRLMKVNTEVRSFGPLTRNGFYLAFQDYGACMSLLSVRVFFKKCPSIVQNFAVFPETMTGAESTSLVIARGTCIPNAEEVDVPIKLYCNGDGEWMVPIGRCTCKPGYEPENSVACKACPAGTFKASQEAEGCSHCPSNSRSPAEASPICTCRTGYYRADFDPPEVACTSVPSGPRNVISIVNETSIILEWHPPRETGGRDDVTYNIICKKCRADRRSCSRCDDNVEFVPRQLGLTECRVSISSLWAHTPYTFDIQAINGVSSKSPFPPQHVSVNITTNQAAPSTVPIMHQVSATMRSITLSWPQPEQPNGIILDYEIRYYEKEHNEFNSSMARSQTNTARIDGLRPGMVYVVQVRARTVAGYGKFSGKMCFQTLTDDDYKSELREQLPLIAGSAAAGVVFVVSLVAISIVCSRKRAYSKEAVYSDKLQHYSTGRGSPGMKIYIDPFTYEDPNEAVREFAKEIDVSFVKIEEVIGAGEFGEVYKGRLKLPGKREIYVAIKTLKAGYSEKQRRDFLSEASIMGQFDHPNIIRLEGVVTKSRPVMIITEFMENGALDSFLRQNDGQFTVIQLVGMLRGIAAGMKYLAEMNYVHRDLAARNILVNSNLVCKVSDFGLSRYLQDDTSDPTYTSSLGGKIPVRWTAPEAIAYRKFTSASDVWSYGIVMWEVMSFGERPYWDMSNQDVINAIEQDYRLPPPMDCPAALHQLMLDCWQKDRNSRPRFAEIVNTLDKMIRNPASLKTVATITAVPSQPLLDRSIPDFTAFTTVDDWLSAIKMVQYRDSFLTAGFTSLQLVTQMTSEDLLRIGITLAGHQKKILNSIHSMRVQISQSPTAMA

[2] = target: Homeodomain-interacting protein kinase 3 (Homo sapiens) (UniProt Q9H422); assay: Residual activity of HIPK3 at 0.1 uM by microplate scintillation counting
[3] = target: Tyrosine-protein kinase Lck (Homo sapiens) (UniProt P06239); assay: Residual activity of LCK at 0.1 uM by microplate scintillation counting
[4] = target: LIM domain kinase 1 (Homo sapiens) (UniProt P53667); assay: Residual activity of LIMK1 at 1 uM by microplate scintillation counting
[5] = target: Serine/threonine-protein kinase Nek7 (Homo sapiens) (UniProt Q8TDX7); assay: Residual activity of NEK7 at 1 uM by microplate scintillation counting
[6] = target: Ribosomal protein S6 kinase alpha-6 (Homo sapiens) (UniProt Q9UK32); assay: Residual activity of RPS6KA6 at 1 uM by microplate scintillation counting
[7] = system: Tyrosine-protein kinase ABL1 (Homo sapiens), P00519 [T315I]; assay: Residual activity of ABL1 T315I mutant at 10 uM by microplate scintillation counting
[8] = target: T2, Eukaryotic elongation factor 2 kinase (Homo sapiens) (UniProt O00418); assay: Residual activity of EEF2K at 10 uM by microplate scintillation counting
T2 sequence (whole entry): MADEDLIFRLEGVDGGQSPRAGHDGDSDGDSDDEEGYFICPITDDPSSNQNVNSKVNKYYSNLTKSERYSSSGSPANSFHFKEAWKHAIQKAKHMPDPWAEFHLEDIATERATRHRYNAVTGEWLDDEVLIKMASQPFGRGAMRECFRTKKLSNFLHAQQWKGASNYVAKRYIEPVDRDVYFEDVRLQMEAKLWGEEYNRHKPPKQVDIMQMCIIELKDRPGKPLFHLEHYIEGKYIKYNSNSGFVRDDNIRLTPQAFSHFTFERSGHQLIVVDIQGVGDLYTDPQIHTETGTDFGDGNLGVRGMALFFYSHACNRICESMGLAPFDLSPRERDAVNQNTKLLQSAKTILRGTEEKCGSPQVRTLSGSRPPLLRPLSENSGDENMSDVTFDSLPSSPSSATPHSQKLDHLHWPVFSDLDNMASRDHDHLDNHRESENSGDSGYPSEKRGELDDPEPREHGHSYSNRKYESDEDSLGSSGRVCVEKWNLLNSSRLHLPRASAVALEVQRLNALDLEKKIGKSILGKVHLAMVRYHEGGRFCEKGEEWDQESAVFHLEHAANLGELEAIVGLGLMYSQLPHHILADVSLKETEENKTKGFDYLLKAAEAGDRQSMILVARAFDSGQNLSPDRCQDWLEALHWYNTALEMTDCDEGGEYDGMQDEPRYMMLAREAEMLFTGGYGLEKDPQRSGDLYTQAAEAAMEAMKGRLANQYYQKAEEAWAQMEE

[9] = target: Ephrin type-A receptor 2 (Homo sapiens) (UniProt P29317); assay: Residual activity of EPHA2 at 10 uM by microplate scintillation counting
[10] = target: Ephrin type-A receptor 4 (Homo sapiens) (UniProt P54764); assay: Residual activity of EPHA4 at 10 uM by microplate scintillation counting
[11] = target: Ephrin type-A receptor 5 (Homo sapiens) (UniProt P54756); assay: Residual activity of EPHA5 at 10 uM by microplate scintillation counting
[12] = target: Interleukin-1 receptor-associated kinase 1 (Homo sapiens) (UniProt P51617); assay: Residual activity of IRAKI at 10 uM by microplate scintillation counting
[13] = target: Tyrosine-protein kinase receptor UFO (Homo sapiens) (UniProt P30530); assay: Residual activity of AXL at 1 uM by microplate scintillation counting
[14] = system: Epidermal growth factor receptor (Homo sapiens), P00533 [T790M]; assay: Residual activity of EGFR T790M mutant at 0.1 uM by microplate scintillation counting
[15] = target: Casein kinase I isoform gamma-2 (Homo sapiens) (UniProt P78368); assay: Residual activity of CK1gamma2 at 0.1 uM by microplate scintillation counting
[16] = target: Serine/threonine-protein kinase 33 (Homo sapiens) (UniProt Q9BYT3); assay: Residual activity of STK33 at 10 uM by microplate scintillation counting
[17] = target: Proto-oncogene tyrosine-protein kinase receptor Ret (Homo sapiens) (UniProt P07949); assay: Residual activity of RET at 0.1 uM by microplate scintillation counting
[18] = target: Non-receptor tyrosine-protein kinase TYK2 (Homo sapiens) (UniProt P29597); assay: Residual activity of TYK2 at 10 uM by microplate scintillation counting

Sequence of Serine/threonine-protein kinase Nek7 (Homo sapiens) (Q8TDX7 whole entry, looked up): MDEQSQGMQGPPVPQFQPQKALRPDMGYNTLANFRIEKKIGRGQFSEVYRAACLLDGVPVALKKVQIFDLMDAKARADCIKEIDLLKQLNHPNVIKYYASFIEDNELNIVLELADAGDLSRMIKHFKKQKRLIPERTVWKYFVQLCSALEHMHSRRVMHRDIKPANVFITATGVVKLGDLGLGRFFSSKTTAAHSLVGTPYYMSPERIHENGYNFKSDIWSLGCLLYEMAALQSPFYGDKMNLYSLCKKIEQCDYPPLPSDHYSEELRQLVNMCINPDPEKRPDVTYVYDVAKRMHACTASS
Sequence of Ribosomal protein S6 kinase alpha-6 (Homo sapiens) (Q9UK32 whole entry): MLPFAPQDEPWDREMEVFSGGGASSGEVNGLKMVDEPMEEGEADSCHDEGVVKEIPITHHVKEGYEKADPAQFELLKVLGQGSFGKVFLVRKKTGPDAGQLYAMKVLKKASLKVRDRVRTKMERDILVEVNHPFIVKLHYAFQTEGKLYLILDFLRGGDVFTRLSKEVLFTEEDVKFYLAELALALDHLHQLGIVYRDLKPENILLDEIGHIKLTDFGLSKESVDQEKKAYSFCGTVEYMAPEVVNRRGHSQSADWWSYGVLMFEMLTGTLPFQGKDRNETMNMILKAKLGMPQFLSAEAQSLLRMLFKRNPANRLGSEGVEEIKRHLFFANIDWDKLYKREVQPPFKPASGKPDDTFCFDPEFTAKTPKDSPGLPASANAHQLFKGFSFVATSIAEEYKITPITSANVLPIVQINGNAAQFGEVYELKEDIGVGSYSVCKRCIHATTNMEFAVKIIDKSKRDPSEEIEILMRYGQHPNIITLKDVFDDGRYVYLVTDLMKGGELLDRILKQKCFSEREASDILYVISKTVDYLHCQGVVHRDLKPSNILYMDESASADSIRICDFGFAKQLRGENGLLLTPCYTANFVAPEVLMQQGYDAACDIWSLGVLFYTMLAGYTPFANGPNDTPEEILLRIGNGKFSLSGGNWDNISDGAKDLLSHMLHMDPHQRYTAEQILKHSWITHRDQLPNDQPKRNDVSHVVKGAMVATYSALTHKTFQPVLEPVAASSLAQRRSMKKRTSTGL
Sequence of Tyrosine-protein kinase receptor UFO (Homo sapiens) (P30530 whole entry): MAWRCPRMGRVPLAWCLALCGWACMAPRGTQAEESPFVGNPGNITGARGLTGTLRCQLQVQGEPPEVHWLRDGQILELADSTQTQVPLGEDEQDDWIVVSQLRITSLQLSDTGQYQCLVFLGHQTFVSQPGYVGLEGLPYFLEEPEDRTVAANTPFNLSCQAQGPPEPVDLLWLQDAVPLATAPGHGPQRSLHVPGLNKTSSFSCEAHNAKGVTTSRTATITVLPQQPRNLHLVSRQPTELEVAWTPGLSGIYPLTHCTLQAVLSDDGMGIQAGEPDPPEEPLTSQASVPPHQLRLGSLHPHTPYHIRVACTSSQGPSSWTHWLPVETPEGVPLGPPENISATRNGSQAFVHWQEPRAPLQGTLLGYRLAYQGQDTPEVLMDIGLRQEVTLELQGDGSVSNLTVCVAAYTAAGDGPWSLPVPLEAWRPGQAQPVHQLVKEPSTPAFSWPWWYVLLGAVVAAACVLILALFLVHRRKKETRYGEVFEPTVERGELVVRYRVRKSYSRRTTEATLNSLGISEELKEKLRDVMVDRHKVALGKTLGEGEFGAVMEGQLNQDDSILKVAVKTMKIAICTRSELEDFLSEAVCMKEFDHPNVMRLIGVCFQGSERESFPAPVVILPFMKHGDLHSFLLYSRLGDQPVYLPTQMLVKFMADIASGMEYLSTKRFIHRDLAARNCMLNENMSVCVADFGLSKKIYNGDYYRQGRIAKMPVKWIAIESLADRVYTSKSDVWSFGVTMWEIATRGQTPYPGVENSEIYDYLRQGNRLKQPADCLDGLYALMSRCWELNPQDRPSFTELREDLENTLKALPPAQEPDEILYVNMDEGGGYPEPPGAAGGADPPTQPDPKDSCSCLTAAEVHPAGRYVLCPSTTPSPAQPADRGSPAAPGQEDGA
Sequence of Ephrin type-A receptor 2 (Homo sapiens) (P29317 whole entry): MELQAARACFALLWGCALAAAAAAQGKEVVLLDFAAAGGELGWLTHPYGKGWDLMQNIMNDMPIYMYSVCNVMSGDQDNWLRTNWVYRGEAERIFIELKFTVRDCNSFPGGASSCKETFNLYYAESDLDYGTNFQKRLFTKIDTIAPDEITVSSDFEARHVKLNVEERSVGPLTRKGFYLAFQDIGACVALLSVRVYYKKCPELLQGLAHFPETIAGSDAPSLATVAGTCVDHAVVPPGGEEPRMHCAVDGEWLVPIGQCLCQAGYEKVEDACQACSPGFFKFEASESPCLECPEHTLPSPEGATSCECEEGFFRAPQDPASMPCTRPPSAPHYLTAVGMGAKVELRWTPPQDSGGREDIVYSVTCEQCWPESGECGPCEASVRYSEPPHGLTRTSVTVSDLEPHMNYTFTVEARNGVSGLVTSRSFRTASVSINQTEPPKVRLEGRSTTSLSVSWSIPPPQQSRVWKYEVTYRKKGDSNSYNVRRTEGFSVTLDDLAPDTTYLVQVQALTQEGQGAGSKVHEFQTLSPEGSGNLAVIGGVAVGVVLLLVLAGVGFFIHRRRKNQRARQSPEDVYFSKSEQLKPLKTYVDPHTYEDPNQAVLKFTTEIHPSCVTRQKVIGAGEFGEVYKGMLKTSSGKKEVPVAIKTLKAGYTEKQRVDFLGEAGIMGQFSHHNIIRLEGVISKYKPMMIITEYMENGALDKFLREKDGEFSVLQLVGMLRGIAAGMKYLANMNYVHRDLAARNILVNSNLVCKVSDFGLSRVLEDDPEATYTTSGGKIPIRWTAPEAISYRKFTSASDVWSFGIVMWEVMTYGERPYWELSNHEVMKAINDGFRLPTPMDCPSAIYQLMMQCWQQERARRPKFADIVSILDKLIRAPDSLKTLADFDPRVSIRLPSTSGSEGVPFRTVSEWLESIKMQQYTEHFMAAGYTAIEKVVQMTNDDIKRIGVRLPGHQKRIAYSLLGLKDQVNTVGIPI
Sequence of Serine/threonine-protein kinase 33 (Homo sapiens) (Q9BYT3 whole entry, looked up): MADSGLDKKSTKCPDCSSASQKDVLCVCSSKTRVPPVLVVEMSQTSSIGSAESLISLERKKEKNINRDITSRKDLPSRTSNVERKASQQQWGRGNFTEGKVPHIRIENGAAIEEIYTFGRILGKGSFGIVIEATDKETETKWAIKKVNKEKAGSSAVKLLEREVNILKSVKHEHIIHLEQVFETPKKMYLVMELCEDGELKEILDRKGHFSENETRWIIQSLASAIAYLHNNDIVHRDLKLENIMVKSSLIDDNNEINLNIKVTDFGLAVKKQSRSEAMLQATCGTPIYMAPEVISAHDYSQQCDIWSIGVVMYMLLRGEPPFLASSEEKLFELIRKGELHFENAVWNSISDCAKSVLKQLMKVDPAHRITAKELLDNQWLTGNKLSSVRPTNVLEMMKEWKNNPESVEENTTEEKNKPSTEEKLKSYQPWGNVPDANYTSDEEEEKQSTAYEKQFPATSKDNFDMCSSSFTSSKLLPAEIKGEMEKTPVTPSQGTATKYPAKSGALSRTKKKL
Sequence of LIM domain kinase 1 (Homo sapiens) (P53667 whole entry, looked up, the tested form may be a part): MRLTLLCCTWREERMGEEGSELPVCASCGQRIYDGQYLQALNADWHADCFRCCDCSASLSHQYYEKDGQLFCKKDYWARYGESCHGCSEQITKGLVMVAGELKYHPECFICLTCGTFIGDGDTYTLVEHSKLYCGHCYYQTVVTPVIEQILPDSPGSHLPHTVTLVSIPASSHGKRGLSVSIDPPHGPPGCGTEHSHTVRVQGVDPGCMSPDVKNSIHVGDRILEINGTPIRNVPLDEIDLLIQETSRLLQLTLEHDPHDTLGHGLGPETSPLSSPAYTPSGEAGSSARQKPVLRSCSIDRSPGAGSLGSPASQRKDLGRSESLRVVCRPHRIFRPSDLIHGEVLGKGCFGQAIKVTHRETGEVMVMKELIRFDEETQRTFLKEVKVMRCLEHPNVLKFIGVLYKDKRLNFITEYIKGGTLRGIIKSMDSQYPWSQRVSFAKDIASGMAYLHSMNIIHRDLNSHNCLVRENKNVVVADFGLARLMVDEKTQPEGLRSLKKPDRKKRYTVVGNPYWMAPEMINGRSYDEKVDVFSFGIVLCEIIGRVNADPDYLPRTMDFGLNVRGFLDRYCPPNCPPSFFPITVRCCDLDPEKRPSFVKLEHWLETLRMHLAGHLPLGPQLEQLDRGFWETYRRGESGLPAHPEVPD
Sequence of Tyrosine-protein kinase Lck (Homo sapiens) (P06239 2-509 limits assumed): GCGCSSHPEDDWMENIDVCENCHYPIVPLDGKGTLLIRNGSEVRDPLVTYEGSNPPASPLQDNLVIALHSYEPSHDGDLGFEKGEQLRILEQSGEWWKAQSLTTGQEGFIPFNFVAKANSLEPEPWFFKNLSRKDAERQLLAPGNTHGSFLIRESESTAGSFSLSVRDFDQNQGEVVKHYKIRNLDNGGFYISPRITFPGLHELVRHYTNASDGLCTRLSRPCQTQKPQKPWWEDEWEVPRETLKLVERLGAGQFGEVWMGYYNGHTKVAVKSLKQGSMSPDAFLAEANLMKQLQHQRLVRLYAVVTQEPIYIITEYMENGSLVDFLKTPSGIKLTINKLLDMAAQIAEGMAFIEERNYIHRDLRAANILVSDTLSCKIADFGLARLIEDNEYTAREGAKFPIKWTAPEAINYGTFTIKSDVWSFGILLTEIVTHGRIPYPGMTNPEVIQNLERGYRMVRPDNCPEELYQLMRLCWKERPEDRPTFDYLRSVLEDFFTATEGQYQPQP
Sequence of Casein kinase I isoform gamma-2 (Homo sapiens) (P78368 whole entry, looked up, canonical isoform): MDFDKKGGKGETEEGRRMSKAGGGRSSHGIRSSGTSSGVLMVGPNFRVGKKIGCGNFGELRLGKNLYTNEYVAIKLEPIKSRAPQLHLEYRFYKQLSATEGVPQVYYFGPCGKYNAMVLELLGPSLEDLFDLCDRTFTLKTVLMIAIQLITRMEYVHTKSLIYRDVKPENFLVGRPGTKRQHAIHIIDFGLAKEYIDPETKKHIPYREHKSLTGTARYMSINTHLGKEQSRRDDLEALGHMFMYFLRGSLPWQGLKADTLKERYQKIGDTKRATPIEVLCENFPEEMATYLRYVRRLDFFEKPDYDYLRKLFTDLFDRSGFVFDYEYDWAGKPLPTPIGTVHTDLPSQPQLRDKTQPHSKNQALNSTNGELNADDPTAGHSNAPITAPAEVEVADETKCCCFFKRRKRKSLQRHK

| SMILES | residual activity [1] [%] | residual activity [2] [%] | residual activity [3] [%] | residual activity [4] [%] | residual activity [5] [%] | residual activity [6] [%] | residual activity [7] [%] | residual activity [8] [%] | residual activity [9] [%] | residual activity [10] [%] | residual activity [11] [%] | residual activity [12] [%] | residual activity [13] [%] | residual activity [14] [%] | residual activity [15] [%] | residual activity [16] [%] | residual activity [17] [%] | residual activity [18] [%] |
| --- | --- | --- | --- | --- | --- | --- | --- | --- | --- | --- | --- | --- | --- | --- | --- | --- | --- | --- |
| COc1cc2c(Oc3ccc(-c4nc5ccccc5s4)cc3)ncnc2cc1OCCCN1CCN(C)CC1 | 124 | 88 | 92 | 83 | 95 | 101 | 44 | 91 | 190 | 112 | 302 | 23 | 88 | 97 | 93 | 81 | 92 | 72 |
| COc1cc2c(Oc3ccc(-c4nc5ccccc5s4)cc3F)ncnc2cc1OCCCN1CCN(C)CC1 | 134 | 93 | 86 | 81 | 103 | 97 | 31 | 120 | 73 | 47 | 162 | 18 | 89 | 85 | 90 | 94 | 101 | 55 |
| COc1cc2c(Oc3ccc(-c4nc5ccccc5s4)cc3)ncnc2cc1OCCCN1CCCC1 | 102 | 92 | 104 | 82 | 104 | 95 | 43 | 104 | 187 | 94 | 236 | 18 | 71 | 68 | 93 | 107 | 97 | 72 |
